# Measurements reported in patent US9650674B2, “Nucleic acid probes and methods of using the same” (Board of Trustees University of Arkansas, priority 2012, dated 2017).
# {Cy5.5} = Cy5.5 cyanine dye label
# How the values were obtained:
# [1] = tested on: wild-type (WT) mouse kidney cryosections; assay: Endonuclease activity ex vivo in kidney cryosections; conditions: 5 μM probe, EAA buffer, 37° C.
# Description: Next it was examined whether AB259.3 probe can be used for measurement of endonuclease activity in tissue sections. Kidneys were used because they are known for high activity of DNase I (Ca/Mg-dependent endonuclease). Freshly prepared 10 μm thick cryosections of wild-type (WT) mouse kidney were exposed with 5 μM AB259.3 probe in presence of EAA buffer at 37° C. and time-lapse imaged for 10 min with 1-min intervals.
# Specimens of kidney, liver, spleen and testis tissues were removed from euthanized mice, immersed in OCT medium, rapidly frozen by Fisher Freeze-it and kept on dry ice for no longer than 1 hour prior slicing. Tissue cryosections (8-μm thick) were prepared using the Microm HM 505E cryotome, placed to the Fisher Plus slides and immediately exposed with 0.5 μM AB259.3 probe diluted in EAA buffer. In control samples, applied probe contained EAA buffer supplemented with 200 μM EDTA. Images were taken in 628/40-692/40 spectrum every 30 sec for 10 min in 10 random XY coordinates. Three sections from each specimen were analyzed separately. Maximal velocity of increasing fluorescence was averaged for each section.
# NRK-52E cells = assay: Intracellular endonuclease activity in cultured cells, time-lapse microscopy; assay type: cell-based, rat; conditions: AB259.3/Lipofectamine LTX complexes
# Description: To test whether AB259.3 probe may be delivered intracellularly and thus be used as an indicator of endonuclease activity in live cells, NRK-52E cells were transfected with of AB259.3/Lipofectamine LTX complexes and imaged by time-lapse epifluorescence microscopy every 10 min for 8 hours. A 2.5-3 times increased fluorescence reached plateau in 1 hour after transfection and the cells retained fluorescent dye for the duration of experiment (FIG. 4A). To induce activity of endonucleases, cells were treated with cisplatin or camptothecin and imaged by time-lapse microscopy for Cy5.5 fluorescence. […] Therefore, it was concluded that AB259.3 can be delivered and used for intracellular monitoring of endonuclease activity in live cells. To further determine whether AB259.3 probe can be used in other cell lines, several of them were tested (FIG. 4D). […] It was then determined whether the probe without the loop would be consumed by NRK-52E cells equally to the original loop probe. […] Finally, PCR was used to determine whether the DNA part (as opposed to the fluorophores) of the probes enters the cells in vivo and in vitro.
# Rat proximal tubular epithelial NRK-52E cells were used to test the ability of AB259.3 probe to measure endonuclease activity. The cells were seeded in a 24-well plate at 50,000 cells per well in complete DMEM medium supplemented with 10% fetal bovine serum. Cells were transfected with the AB259.3 probe using Lipofectamin LTX and then subjected to spinning disk confocal fluorescent time-lapse microscopy in 628/40-692/40 spectrum every 10 min for 8 hours using Olympus IX-81 image system equipped with Hamamatsu ORCA-ER camera and LiveCell microenvironmental control chamber (Pathology Devices Inc., Westminster, Md.). In separate experiment, cells were treated with either 25 μM cisplatin or 50 μM camptothecin for 8 hours, followed by 1-hour transfection with AB259.3 probe and 8-hour time-lapse imaging session with 10-min intervals using the same microscopy system.
# WT and DNase I KO mice [2] = assay: Intravital assessment in other organs (bilateral kidney ligation or cationic liposomes); conditions: imaging 3 hours after injection; FIGS. 10A and 10B
# Description: To check an ability of probe to measure endonuclease activity on other organs, the renal distribution of AB259.3 probe was challenged by two complementary approaches. First group of mice was subjected to bilateral kidney ligation followed by intravital administration of AB259.3 probe and imaging in 3 hours after injection. […] Another group of mice was injected with AB259.3 probe packed in cationic liposomes in attempt to make probe delivery bioavailable to all organs and tissues and less specific to kidneys.
# Male DNase I KO mice and their WT counterparts at the age 8-10 weeks were used for all experiments. All procedures with mice were performed under general anesthesia with 50 mg/kg ketamine. For subcutaneous administration, mice were injected with 10 μl of 0.1 μM AB259.3 in the dorsal subcutaneous site. For systemic visualization, AB259.3 was injected intravenously at 50 nmol/kg in tail vein. […] Bilateral kidney ligation was performed on anesthetized DNase I KO or WT mice. Renal pedicles were surgically ligated using 4.0 silk sutures. […]
# Imaging of live and euthanized mice or their isolated organs were performed using Xenogen IVIS Image System 200 (Caliper Life Sciences, Hopkinton, Mass.) equipped with Living Image® Software. […] Quantification of the manually designated areas was performed based on average radiant efficiency with the fixed min-max dynamic range.
# [3] = Heat denaturing and reannealing of hairpin probes (probe integrity); assay type: physicochemical; conditions: ROX internal reference; above background; FIG. 1C
# Description: To ensure the integrity of the DNA probes, it was tested whether a heat denaturing of the hairpins would cause an increase in fluorescence, and if a reannealing would reverse it. To compensate for thermal change of fluorophore's emission, the ROX fluorophore was added to tested probes as an internal reference.
# (§1) All cell-free experiments were performed using the Bio-Tek Synergy 5 fluorescent plate reader. Before experiments, optimal excitation and emission wavelengths were determined. For this, excitation and emission were scanned in the ranges of 600-680 nm and 690-705 nm, respectively. The optimal excitation/emission was determined to be 665/703 nm. All kinetic and endpoint measurements were done in a total volume of 100 μl at 37° C. Unless stated otherwise, DNA substrate was used in final concentration 0.5 μM reconstituted in endonuclease activity assay (EAA) buffer (2 mM CaCl2, 5 mM MgCl2, 10 mM Tris-HCl, pH 7.4) in a 96-well plate. After measurement of starting fluorescence, DNase I or tested material (diluted 1:20 urine or 1:100 serum) were added to the reconstituted probe, rapidly mixed and fluorescence was monitored for up to 60 min with 30-sec intervals. In some instances, EDTA (final concentration 200 μM) or NaOH (50 mM) was added to terminate the reaction. For the experiments that involved assessment of fluorescence after DNA denaturing, probes were tested in Cepheid real-time PCR system using Cy5 setting (Sunnyvale, Calif.).
# [4] = Baseline fluorescence of hairpin DNA probes; assay type: physicochemical; conditions: correlated with length of protruded DNA end; FIG. 1B
# Source text: It was impossible to determine if the background fluorescence was attributed to the probe or it originated from a partial degradation of the probe. Consequently, the NIRF probes were designed as hairpins to allow testing the integrity of DNA by its denaturing followed by reannealing. The use of hairpin also allows easy measurement of the maximum fluorescence of the probe. The distance between two fluorophores varied by changing of protruding DNA strand length from +0 (AB259.1 probe) to +5 (AB259.3 probe) or to +10 (AB259.5 probe) as shown in FIG. 1A. The baseline fluorescence of probe AB259.1 was 30% higher than negative control without a probe (FIG. 1B).
# as §1
# [5] = Alkaline denaturing of probes, kinetic fluorescence; assay type: physicochemical; conditions: alkaline buffer
# Description: Lastly, the probes' integrity was tested by alkaline denaturing. The probes were treated with alkaline buffer and kinetic detection of the fluorescence was performed. […] AB259.1, AB259.3 and AB259.5 gained 40%, 81%, and 85% of fluorescence, respectively.
# as §1
# WT and DNase I KO mice [6] = assay: Cy5.5 fluorescence in organs isolated after intravenous probe injection (Xenogen-IVIS); assay type: in vivo, mouse; conditions: 50 nmol/kg intravenous, 1 or 3 hours after injection; FIG. 6
# Description: In the next set of experiments, it was tested whether AB259.3 probe is suitable for in vivo measurement of DNase I and endonuclease activity in internal organs. For this, WT and DNase I KO mice were subjected to intravenous administration of AB259.3 probe (50 nmol/kg). The organs including brain, heart, lung, muscle, bone (femur), liver, pancreas, salivary gland, jejunum, spleen, kidney and testicles were collected in 1 or 3 hours after injection and measured for Cy5.5 fluorescence using a Xenogen-IVIS instrument. […] Kidneys, pancreas, salivary glands and lungs were among those that had the most prominent relative increase of Cy5.5 fluorescence in WT mice with markedly lower level of fluorescence in DNase I KO mice. Despite highest absolute fluorescence values in gut and liver, relative gain of fluorescence in these organs was quite modest due to the high background autofluorescence.
# Kidney ischemia-reperfusion was performed as previously reported. […] The liposomes were prepared as described previously.
substance,measurement,setting,value
"[Cy5.5]AACACTCCGATGAGTGTAGAATGT[Cy5.5] (DNA, 5' {Cy5.5}, 3' {Cy5.5}, backbone not given here) [AB259.3, hairpin DNA probe with Cy5.5 at both ends, protruding strand +5]",time to plateau of fluorescence,[1],2 to 3 min
same,increase of Cy5.5 fluorescence compared to starting point,"[1]; 10 min, FIGS. 5A and 5B",2.5 times
same,time to plateau of fluorescence after transfection,NRK-52E cells,1 h
same,increase of fluorescence in cells after transfection,NRK-52E cells; FIG. 4A,2.5-3 times
same,probe accumulation after bilateral kidney ligation,WT and DNase I KO mice [2],accumulation in kidneys was completely abolished
same,gain of fluorescence on heat denaturing,[3],2.8 times
same,baseline fluorescence (in words),[4],much higher levels of the baseline fluorescence
same,gain of fluorescence on alkaline denaturing,[5],81%
same,organ fluorescence after injection (in words),WT and DNase I KO mice [6],kidneys appeared to be the most visibly distinctive organ
